# From patent US20050266509A1, “Interaction of NMDA receptor with protein tyrosine phosphatase” (AGY Therapeutics, Inc., priority 2003, published 2005)
# Target: T1, PTPMEG (Homo sapiens, UniProt P29074)
# T1 construct: Asp-Ser-6xHis (N); made in house; host or cells: E. coli BL21(DE3)
# T1 sequence (P29074 655-911 limits assumed): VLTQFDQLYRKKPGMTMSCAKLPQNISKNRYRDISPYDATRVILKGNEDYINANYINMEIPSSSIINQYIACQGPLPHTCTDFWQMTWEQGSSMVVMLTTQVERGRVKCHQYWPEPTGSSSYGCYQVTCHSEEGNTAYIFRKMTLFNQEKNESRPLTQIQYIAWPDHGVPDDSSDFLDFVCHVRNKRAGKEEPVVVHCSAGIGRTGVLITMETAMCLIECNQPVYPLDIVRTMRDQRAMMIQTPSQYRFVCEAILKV
# Assay: TR-FRET phosphatase activity assay, PTPMEG
# Type: biochemical
# Protocol: Expression and Purification of PTPMEG The DNA sequence encoding the C-terminal 326 residues of PTPMEG (phosphatase domain) was subcloned into the pET-17b vector (Novagen) between the Ndel and Xhol restriction sites. An N-terminal tag consisting of Asp-Ser-6×His was incorporated at the beginning of the protein sequence. Protein expression was performed in BL21(DE3) cells at 37° C. with a 4 hour 0.5 mM IPTG induction. The cells were harvested by centrifugation and stored at −80° C. until needed for protein purification. Protein purification consisted of cell lysis by sonication, immobilized metal affinity chromatography (IMAC) on a Ni^2+-NTA column (Qiagen), followed by hydrophobic interaction chromatography (HIC) on a phenyl sepharose column (Amersham Pharmacia Biotech) and/or ion exchange chromatography (IEC) on a Q sepharose column (Amersham Pharmacia Biotech). The purified 38.3 kDa protein was buffer exchanged into 50 mM HEPES, pH 7.5 and stored at −80° C.
# Phosphatase Buffer: 50 mm HEPES, pH 8; 1 mM DDT; 2 mM EDTA; 0.01% Brij solution; 10 mM MgCl2. […]
# The plates are then placed in the plate reader, an Analyst HT. […] Fluorescence resonance energy transfer (FRET) from Eu-Ab to APC will only occur when they are in close proximity. […]
compound,measurement,value
CCOC(=O)C(=CC1=C/C(=C/N(C)C)C(=O)O1)C(=O)OCC [AGY- 0046293],IC50,320 nM
